We go through four compounds from PubChem BioAssay AID624474 (Sanford-Burnham Center for Chemical Genomics, 2012).

In this assay the target is Protein skinhead-1 (Caenorhabditis elegans) (UniProt P34707). Nature of the assay: SKN-1 inhibitor hit potency, dose response, fluorescence ratio readout (AID 624474). The settings on record: SKN-1 inhibitor fluorescence ratio assay.
Protein skinhead-1 (Caenorhabditis elegans), sequence (P34707 whole entry, looked up): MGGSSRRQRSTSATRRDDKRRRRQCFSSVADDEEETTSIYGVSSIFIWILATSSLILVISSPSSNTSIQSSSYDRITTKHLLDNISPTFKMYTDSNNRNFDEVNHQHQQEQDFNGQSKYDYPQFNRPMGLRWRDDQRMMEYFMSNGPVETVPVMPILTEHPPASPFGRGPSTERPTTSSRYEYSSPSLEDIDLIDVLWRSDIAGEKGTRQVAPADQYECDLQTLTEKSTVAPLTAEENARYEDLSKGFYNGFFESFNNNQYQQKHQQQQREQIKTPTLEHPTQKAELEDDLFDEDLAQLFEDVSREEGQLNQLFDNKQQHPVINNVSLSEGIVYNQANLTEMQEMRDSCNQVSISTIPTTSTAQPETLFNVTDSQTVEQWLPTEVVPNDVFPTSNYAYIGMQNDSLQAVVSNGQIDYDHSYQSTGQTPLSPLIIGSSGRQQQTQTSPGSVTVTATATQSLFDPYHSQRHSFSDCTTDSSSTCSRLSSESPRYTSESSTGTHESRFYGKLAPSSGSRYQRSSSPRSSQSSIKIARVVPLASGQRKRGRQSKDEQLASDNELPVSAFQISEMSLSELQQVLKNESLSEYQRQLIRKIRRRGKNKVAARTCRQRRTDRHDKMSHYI
On to `O=C(/C=C/c1ccc(Br)cc1)c1ccc(NC2=NCCCS2)cc1`, for which the IC50 (commonly the midpoint of a concentration-inhibition curve) is 9.41 µM.

For the compound `Brc1ccc(-c2nnc(-c3ccco3)o2)cc1`, the IC50 was 13.9 µM.

Regarding `COc1cc(CNC(C)(C)CO)cc(Br)c1OCc1ccc(Cl)cc1`, the half-maximal inhibitory concentration (IC50) is 19.5 µM.

For the compound `Clc1ccc(Cn2cc(Br)cn2)cc1Cl`, the 50% inhibitory concentration (IC50) was 30.6 µM.
